Values quoted from earlier work as cited in US20260102351A1, “LYOPHILIZED FORMULATION OF CROFELEMER AND METHODS OF TREATMENT USING THE SAME” (priority 2022, published 2026).

Details: human, in vivo

Q: With Crofelemer as the substance, how does the “absorption from the GI tract” value read?
A: little or no absorption

Q: What about the “systemic bioavailability in humans” value of the same substance?
A: virtually no systemic bioavailability

Q: What about the tolerability of the same substance?
A: well tolerated
